The test system of this series is MCF7 cells. The series can be described thus: Cell viability by trypan blue exclusion. In kind it is cell-based, human. Particulars: MCF7, 150 nM, 24 hours after transfection, vs control aptamer AT. Here is the method:
FIG. 9. Cell viability analysis by trypan blue exclusion. MCF7, MDA-MB-231, and MDA-MB-468 cells from different experiments were collected 24 hours after transfection, diluted 1:10 in trypan blue, and counted in a TC20 counter (BioRad, USA). The boxes represent the mean±the maximum and minimum of 12-14 independent experiments (**p<0.01, and ***p<0.001 with respect to the control aptamer AT). Trypan blue exclusion. Cells (live and dead) were collected in their corresponding medium, trypan blue (Sigma-Aldrich, USA) was added, and the cells were counted using the TC20 counter (BioRad, USA). Living cells are those which exclude the dye. The results were expressed as the number of living cells/mL. The cell lines were then transfected with the previously established concentrations and the number of living cells was determined 24 hours after transfection with […]2 or with the control aptamer AT by means of trypan blue exclusion.

With “5′TGGGGTGGGCGGGCGGGGGTGGGGGTGGT-3′ (DNA, backbone and methylation of C not given here; further chemistry not fully specified) [apMNKQ2]”, the “total number of living cells (trypan blue exclusion)” value is on record as “significant drop”.

Source of the values: patent US12492403B2, “Aptamers and the use thereof in the treatment of cancer” (FUNDACIÓN PARA LA INVESTIGACIÓN BIOMÉDICA DEL HOSPITAL …, priority 2018, dated 2025).
